Results published in patent publication US20240000740A1, “OMEGA-3 POLYUNSATURATED FATTY ACIDS FOR TREATING / PREVENTING MALE INFERTILITY IN PREPUBERTAL CANDIDATES FOR GONADOTOXIC THERAPIES” (UNIVERSITA' DEGLI STUDI DI PERUGIA, priority 2020, published 2024).
Entries after “also recorded” stand apart in the source; their conditions may differ.

Tests used:
Type in all cases: cell-based, pig
[1] = system: 5-hydroxymethylcytosine (5hmC); assay: Immunofluorescence analysis of 5hmC in Sertoli cells (SCs) of prepubertal pigs; details: 48 hours plus 24 of recovery, compared to untreated SCs
Procedure: (§1) The animal studies were conducted in accordance with national guidelines (approved Italian animal protection certification A-3143-01) and guidelines of the Committee for the Care and Use of Animals of the University of Perugia. The experimental protocols were approved by the University of Perugia. The newborn prepubertal “Large White” pigs (Farm “Trequattrini”, S. Elena di Marsciano, PG), aged 7-15 days, were used as SC donors. The SCs were isolated in accordance with previously established methods, modified in our laboratory (Luca et al., 2015).
(§2) The SCs were maintained at 37° C. and 5% CO2 in HAMF-12 (Euroclone, MI, Italy) supplemented with 0.166 nM of retinoic acid (Sigma-Aldrich, St. Louis, MO, USA) and 5 mL/500 ml of ITS (Becton Dickinson cat. no. 354352, NJ, USA) in the absence (untreated) or presence of chemotherapeutic drugs for 48 hours plus 24 of recovery at the following concentrations: • Cisplatin 0.33 μM, 1.66 μM and 3.33 μM; • 4-hydroperoxycyclophosphamide (40HP) 50 and 100 μM; • Doxorubicin 0.1 μM, 0.2 μM and 1 μM; • cisplatin 3.33 μM plus EPA 100 μM; • cisplatin 3.33 μM plus 5-aza-2′-deoxy-cytidine (5 AZA) 1 μM.
The untreated SCs and SCs treated with chemotherapeutic drugs (plus EPA or without EPA), were made to grow on round slides pre-treated with gelatine (Sigma-Aldrich). At the end of the treatment, the SCs were fixed for 30 min in 4% paraformaldehyde in phosphate buffer (PBS). Prior to immunolabelling, the cells were subjected to permeabilization (PBS, 0.2% Triton X) for 5 min at room temperature, blocked in 0.5% bovine serum albumin (BSA; Sigma-Aldrich, St. Louis, MO) in PBS for 10 min, and then exposed to the primary anti-5hmC antibody (Santa Cruz Biotechnology, 1:100 in PBS) overnight at 4° C. The cells were washed three times in PBS for 5 min and then exposed to the secondary Alexa-488 labelled antibody (1:500 in PBS). The cells were counterstained with 4′,6-diamidino-2-phenylindole (DAPI) for 1 min after treatment with RNase (10 mg/mL per 10 min.). The negative control for the immunolabelling consisted in skipping the labelling with the primary antibody and passing directly to the secondary antibody. The slides were then mounted with ProLong® Gold Antifade (ThermoFisher) and the images were acquired with an Olympus BX-41 equipped with Cell-F image processing software (Olympus).

GDNF [2] = assay: Real-time PCR analysis of GDNF gene expression in SCs of prepubertal pigs; details: for gene expression of GDNF, real-time PCR: 48 hours plus 24 of recovery, compared to untreated SCs
Procedure: as §1, §2
Total RNA was isolated from the monolayers of untreated SCs and SCs treated with chemotherapeutic drugs (plus EPA or without EPA) by means of an RNA purification kit (Versagene RNA Cell Kit, Gentra Systems, Minneapolis, MN) and quantified by reading the optical density at 260 nm. Subsequently, 1 μg of total RNA was subjected to RT in a final volume of 20 μl by means of the Maxima First Strand cDNA Synthesis kit (Thermo Scientific, MA, USA). Real-time PCR was performed using 16 ng of cDNA, prepared from the RT reaction, and SYBR Green (Stratagene, Amsterdam, Netherlands). Real-time PCR was performed with an Mx3000P cycler (Stratagene) using FAM for detection and ROX as the reference dye. The level of mRNA for each sample was normalised with respect to the mRNA of β-actin and expressed as a change compared to the level of the untreated control cells.

GDNF [3] = assay: Western blotting and densitometric analysis of GDNF protein expression in SCs of prepubertal pigs; details: 48 hours plus 24 of recovery, compared to untreated SCs
Procedure: as §1, §2
The SCs were maintained at 37° C. and 5% CO2 in HAMF-12 (Euroclone, MI, Italia) supplemented with 0.166 nM of retinoic acid (Sigma-Aldrich, St. Louis, MO, USA) and 5 mL/500 ml of ITS (Becton Dickinson cat. no. 354352, NJ, USA) in the absence (untreated) or presence of cisplatin 0.5 and 1 μg/ml for 48 hours plus 24 of recovery plus 100 μM EPA.
The SCs were cultured at 37° C. and 5% CO2 in HAMF-12 (Euroclone, MI, Italy) supplemented with 0.166 nM of retinoic acid (Sigma-Aldrich, St. Louis, MO, USA) and 5 mL/500 ml of ITS (Becton Dickinson cat. no. 354352, NJ, USA) in the absence (untreated) or presence of cisplatin 0.5 and 1 μg/ml for 48 hours plus 24 of recovery and with the addition of 100 μM EPA. […] The images were acquired by means of the VersaDoc Imaging System (Bio-Rad Hercules, CA, USA), and the respective signals were quantified using Quantity One software (Bio-Rad) 2.8.

[4] = SCs treated with 4-hydroperoxycyclophosphamide 50 and 100 μM
[5] = SCs treated with cisplatin 0.33, 1.66 and 3.33 μM
[6] = SCs treated with doxorubicin 0.1, 0.2 and 1 μM

## O=P1(N(CCCl)CCCl)NC(OO)CCO1 (stereo not drawn) [4-hydroperoxycyclophosphamide]
[1]; [4]
  5-hydroxymethylcytosine (5hmC), immunofluorescence analysis: significant reduction
[1]; SCs treated with 4-hydroperoxycyclophosphamide 50 and 100 μM, listed as 4OHP
  5-hydroxymethylcytosine (5hmC), immunofluorescence analysis: progressive reduction
GDNF [2]; [4]
  gene expression of GDNF, real-time PCR: significant reduction
GDNF [3]; [4]
  protein expression of GDNF, western blotting: significant reduction

## Nc1ncn([C@H]2C[C@H](O)[C@@H](CO)O2)c(=O)n1 [AZA, 5-aza-2′-deoxycytidine]
GDNF [2]; SCs treated with cisplatin 3.33 μM plus 5 AZA 1 μM, compared with EPA treatment
  recovery in the expression of GDNF: comparable to the one induced by treatment with the fatty acid EPA; also recorded: recovery comparable to that induced by treatment with the fatty acid

## N.N.[Cl][Pt][Cl] [Cisplatin]
[1]; [5]
  5-hydroxymethylcytosine (5hmC), immunofluorescence analysis: significant reduction
[1]; SCs treated with cisplatin 0.33, 1.66 and 3.33 μM, listed as cisplatin
  5-hydroxymethylcytosine (5hmC), immunofluorescence analysis: progressive reduction
GDNF [2]; [5]
  gene expression of GDNF, real-time PCR: significant reduction
GDNF [3]; [5]
  protein expression of GDNF, western blotting: significant reduction

## COc1cccc2c1C(=O)c1c(O)c3c(c(O)c1C2=O)C[C@@](O)(C(=O)CO)C[C@@H]3O[C@H]1C[C@H](N)[C@H](O)[C@H](C)O1 [doxorubicin]
[1]; [6]
  5-hydroxymethylcytosine (5hmC), immunofluorescence analysis: progressive reduction; also recorded: significant reduction
GDNF [2]; [6]
  gene expression of GDNF, real-time PCR: significant reduction
GDNF [3]; [6]
  protein expression of GDNF, western blotting: significant reduction
